The values that follow come from US20250340551A1, “SMALL MOLECULE MODULATORS OF STAT6” (Gilead Sciences, Inc., priority 2024, published 2025).

In one assay the test system is Eotaxin-3 (CCL26) release in human whole blood stimulated with IL-4. Nature of the assay: Human whole blood eotaxin-3 assay (IL-4 stimulated, Eotaxin-3 release). Type of assay: cell-based. The following applies: Homo sapiens, 48 h. The procedure: This was a human whole blood assay using recombinant human Interleukin 4 to stimulate the blood and measuring the ability of the test compounds to inhibit eotaxin-3 release. The biological activities of the test compounds have been tested in human whole blood stimulated with IL-4 measuring Eotaxin-3 release. The test compounds were added to 384 well clear flat-bottom plate in a 4-fold serial dilution in triplicates using a liquid handler. Human whole blood stabilized in lithium-heparin tubes was added in a volume of 65 μL per well, resulting in a final DMSO concentration of 0.5%. The plate is incubated for 2 h at 37° C. under 5% CO2/95% air. Subsequently, 5 μL of recombinant human IL-4 (R&D Systems, cat #204-ILB) was added to the wells to a final concentration of 400 pM. The plate was incubated for 48 h at 37° C. under 5% CO2/95% air. The plate was spun down for 10 minutes at 500×g and 20 μL supernatant was harvested and transferred to a 384 well v-bottom plate using a liquid handler and stored at −20° C. until further analysis. 10 μL supernatant was used to measure the level of Eotaxin-3 (CCL26) using Human Eotaxin-3 MSD kit from Mesocsale (Cat #K251UEK-4). The assay was performed according to the manufacture instructions.
The data from the human whole blood eotaxin-3 assay is shown below for Examples 1u2, 1x1, 1af26, and 1af36 (where the effect in % is plotted against the test concentration in M on a log-scale).
`[2H]C([2H])([2H])N(C(=O)c1ccc(C2=CCN(Cc3cc4c(-c5ccc(N)nc5)ccnc4n3C)CC2)nn1)C([2H])([2H])[2H]` [Example 1z4, 6-(1-((4-(6-aminopyridin-3-yl)-1-methyl-1H-pyrrolo[2,3-b]pyridin-2-yl)methyl)-1,2,3,6-tetrahydropyridin-4-yl)-N,N-bis(methyl-d3)pyridazine-3-carboxamide] had an Emax of 20 to 30%.

With `CNc1ccc(-c2ccnc3c2cc(CN2CC[C@@H](c4ccc(C(=O)N(C)C)cc4)[C@H](F)C2)n3C)nc1` (stereo in doubt) [Example 1o17, 4-((3S,4S)-3-fluoro-1-((1-methyl-4-(5-(methylamino)pyridin-2-yl)-1H-pyrrolo[2,3-b]pyridin-2-yl)methyl)piperidin-4-yl)-N,N-dimethylbenzamide], the Emax is less than 20%.

Turning to `[2H]C([2H])([2H])N(C(=O)c1cnc(C2=CCN(Cc3cc4c(-c5ccc(N)nc5)ccnc4n3C)CC2)cn1)C([2H])([2H])[2H]` [Example 1af79, 5-(1-((4-(6-Aminopyridin-3-yl)-1-methyl-1H-pyrrolo[2,3-b]pyridin-2-yl)methyl)-1,2,3,6-tetrahydropyridin-4-yl)-N,N-bis(methyl-d3)pyrazine-2-carboxamide], the Emax was 20 to 30%.

In turn, `Cc1cc(C(=O)N(C)C)nnc1C1=CCN(Cc2cc3c(-c4ccc(N)nc4)ccnc3n2C)CC1` [Example 1z6, 6-(1-((4-(6-aminopyridin-3-yl)-1-methyl-1H-pyrrolo[2,3-b]pyridin-2-yl)methyl)-1,2,3,6-tetrahydropyridin-4-yl)-N,N,5-trimethylpyridazine-3-carboxamide] returned an Emax of less than 20%.

The assay is the same for the next values; noted with them: Homo sapiens, Hec50, 48 h.
`CNc1ccc(-c2ccnc3c2cc(CN2CC=C(c4c(C)cc(C(=O)N(C)C)cc4C)CC2)n3C)nn1` [Example 1p10, N,N,3,5-Tetramethyl-4-[1-[[1-methyl-4-[6-(methylamino)pyridazin-3-yl]pyrrolo[2,3-b]pyridin-2-yl]methyl]-3,6-dihydro-2H-pyridin-4-yl]benzamide] yielded an EC50 of 239 nM.

The compound `[2H]C([2H])([2H])N(C(=O)c1ccc(C2=CCN([C@@H](C)c3cc4c(-c5ncc(N)cc5C(F)(F)F)ccnc4n3C)CC2)cc1)C([2H])([2H])[2H]` [Example 1af57, (S)-4-(1-(1-(4-(5-Amino-3-(trifluoromethyl)pyridin-2-yl)-1-methyl-1H-pyrrolo[2,3-b]pyridin-2-yl)ethyl)-1,2,3,6-tetrahydropyridin-4-yl)-N,N-bis(methyl-d3)benzamide] gave an EC50 of 17900 nM.

`[2H]C([2H])([2H])N(C(=O)c1ccc([C@@H]2CCN(Cc3cc4c(-c5ccc(N)cn5)ccnc4n3C)[C@H](C)C2)cc1)C([2H])([2H])[2H]` [Example 1z9, 4-((2R,4R)-1-((4-(5-aminopyridin-2-yl)-1-methyl-1H-pyrrolo[2,3-b]pyridin-2-yl)methyl)-2-methylpiperidin-4-yl)-N,N-bis(methyl-d3)benzamide]: the concentration for a half-maximal effect (EC50) is 167 nM. This EC50 lies about 110-fold lower than the previous one.

In the case of `Cc1cc(C(=O)N(C)C)ccc1C1=CCN(Cc2cc3c(-c4ccc(N)nn4)ccnc3n2C)CC1` [Example 1af76, 4-(1-((4-(6-Aminopyridazin-3-yl)-1-methyl-1H-pyrrolo[2,3-b]pyridin-2-yl)methyl)-1,2,3,6-tetrahydropyridin-4-yl)-N,N,3-trimethylbenzamide], the concentration for a half-maximal effect (EC50) amounted to 308 nM.

Turning to `[2H]C([2H])([2H])N(C(=O)c1ccc(C2CCN([C@@H](C)c3cc4c(-c5cnc(N)nn5)ccnc4n3C)CC2)cc1)C([2H])([2H])[2H]` [Example 1af64, (S)-4-(1-(1-(4-(3-amino-1,2,4-triazin-6-yl)-1-methyl-1H-pyrrolo[2,3-b]pyridin-2-yl)ethyl)piperidin-4-yl)-N,N-bis(methyl-d3)benzamide], the EC50 amounted to 3190 nM. This EC50 is about 10-fold higher than that of the compound before.

`CN(C)C(=O)c1cc(F)c(C2=CCN(Cc3cc4c(-c5ccc(N)nn5)ccnc4n3C)CC2)c(F)c1` [Example 1z18, 4-(1-((4-(6-aminopyridazin-3-yl)-1-methyl-1H-pyrrolo[2,3-b]pyridin-2-yl)methyl)-1,2,3,6-tetrahydropyridin-4-yl)-3,5-difluoro-N,N-dimethylbenzamide] showed an EC50 of 204 nM.

`CNc1ccc(-c2ccnc3c2cc(CN2CC=C(c4ccc(C(=O)N(C)C)cc4Cl)CC2)n3C)nn1` [Example 1p18, 3-Chloro-N,N-dimethyl-4-[1-[[1-methyl-4-[6-(methylamino)pyridazin-3-yl]pyrrolo[2,3-b]pyridin-2-yl]methyl]-3,6-dihydro-2H-pyridin-4-yl]benzamide] registered an EC50 of 1710 nM.

`Cc1cc(C(=O)N(C)C)cc(F)c1C1=CCN([C@@H](C)c2cc3c(-c4ccc(N)nc4)ccnc3n2C)CC1` [Example 1z29, (S)-4-(1-(1-(4-(6-aminopyridin-3-yl)-1-methyl-1H-pyrrolo[2,3-b]pyridin-2-yl)ethyl)-1,2,3,6-tetrahydropyridin-4-yl)-3-fluoro-N,N,5-trimethylbenzamide]: the EC50 amounted to 1060 nM.

In turn, `CNc1ccc(-c2ccnc3c2cc(CN2CC=C(c4ccc(C(=O)N(C)C)cc4C(F)(F)F)CC2)n3C)nn1` [Example 1p15, N,N-Dimethyl-4-[1-[[1-methyl-4-[6-(methylamino)pyridazin-3-yl]pyrrolo[2,3-b]pyridin-2-yl]methyl]-3,6-dihydro-2H-pyridin-4-yl]-3-(trifluoromethyl)benzamide] gave an EC50 of 1530 nM. This EC50 and that of the compound before are within 1.5-fold of each other.

The compound `CN(C)C(=O)c1cc(F)c(C2=CCN(Cc3cc4c(-c5ccc(N)nc5)ccnc4n3C)CC2)c(F)c1` [Example 1z16, 4-(1-((4-(6-aminopyridin-3-yl)-1-methyl-1H-pyrrolo[2,3-b]pyridin-2-yl)methyl)-1,2,3,6-tetrahydropyridin-4-yl)-3,5-difluoro-N,N-dimethylbenzamide] displayed an EC50 of 335 nM.

Compound `CNc1ccc(-c2ccnc3c2cc(CN2CC=C(c4ccc(C(=O)N(C)C)cc4OC)CC2)n3C)nn1` [Example 1p14, 3-Methoxy-N,N-dimethyl-4-[1-[[1-methyl-4-[6-(methylamino)pyridazin-3-yl]pyrrolo[2,3-b]pyridin-2-yl]methyl]-3,6-dihydro-2H-pyridin-4-yl]benzamide] showed an EC50 of 3200 nM.

On to `[2H]C([2H])([2H])N(C(=O)c1ccc(C2CCN([C@@H](C)c3cc4c(-c5ccc(N)nc5OC)ccnc4n3C)CC2)cc1)C([2H])([2H])[2H]` [Example 1af67, (S)-4-(1-(1-(4-(6-amino-2-methoxypyridin-3-yl)-1-methyl-1H-pyrrolo[2,3-b]pyridin-2-yl)ethyl)piperidin-4-yl)-N,N-bis(methyl-d3)benzamide], for which the EC50 is 97 nM.

The compound `Cc1cc(C(=O)N(C)C)cc(F)c1C1=CCN(Cc2cc3c(-c4ccc(N)nn4)ccnc3n2C)CC1` [Example 1z14, 4-(1-((4-(6-aminopyridazin-3-yl)-1-methyl-1H-pyrrolo[2,3-b]pyridin-2-yl)methyl)-1,2,3,6-tetrahydropyridin-4-yl)-3-fluoro-N,N,5-trimethylbenzamide] displayed an EC50 of 37.8 nM.

In turn, `[2H]C([2H])([2H])N(C(=O)c1cc(C)c(C2=CCN([C@@H](C)c3cc4c(-c5ccc(NC)nn5)ccnc4n3C)CC2)c(F)c1)C([2H])([2H])[2H]` [Example 1z44, (S)-3-fluoro-5-methyl-N,N-bis(methyl-d3)-4-(1-(1-(1-methyl-4-(6-(methylamino)-pyridazin-3-yl)-1H-pyrrolo[2,3-b]pyridin-2-yl)ethyl)-1,2,3,6-tetrahydropyridin-4-yl)benzamide] registered an EC50 of 39.5 nM.

As to `CNc1ccc(-c2ccnc3c2cc([C@@H](C)N2CC=C(c4c(C)cc(C(=O)N(C)C)cc4F)CC2)n3C)nc1` [Example 1z41, (R)-3-fluoro-N,N,5-trimethyl-4-(1-(1-(1-methyl-4-(5-(methyl-amino)pyridin-2-yl)-1H-pyrrolo[2,3-b]pyridin-2-yl)ethyl)-1,2,3,6-tetrahydropyridin-4-yl)benzamide], the EC50 was determined as 110 nM.

As to `CN(C)C(=O)c1ccc(C2=CCN(Cc3cc4c(-c5ccc(N)nc5)ccnc4n3C)CC2)c(OC(F)(F)F)c1` [Example 1z45, 4-(1-((4-(6-aminopyridin-3-yl)-1-methyl-1H-pyrrolo[2,3-b]pyridin-2-yl)methyl)-1,2,3,6-tetrahydropyridin-4-yl)-N,N-dimethyl-3-(trifluoromethoxy)benzamide], the EC50 is 798 nM.

`[2H]C([2H])([2H])N(C(=O)c1ccc(C2=CCN([C@@H](C)c3cc4c(-c5ccc(NC)nn5)ccnc4n3C)CC2)cc1)C([2H])([2H])[2H]` [Example 1af60, (S)—N,N-bis(methyl-d3)-4-(1-(1-(1-methyl-4-(6-(methylamino)pyridazin-3-yl)-1H-pyrrolo[2,3-b]pyridin-2-yl)ethyl)-1,2,3,6-tetrahydropyridin-4-yl)benzamide] registered an EC50 of 1290 nM.

With `CN(C)C(=O)c1ccc(C2=CCN(Cc3cc4c(-c5ccc(N)nn5)ccnc4n3C)CC2)cc1` [Example 1z1, 4-(1-((4-(6-aminopyridazin-3-yl)-1-methyl-1H-pyrrolo[2,3-b]pyridin-2-yl)methyl)-1,2,3,6-tetrahydropyridin-4-yl)-N,N-dimethylbenzamide], the EC50 was found to be 5.76 nM. Against the preceding compound, the EC50 is about 220-fold lower.

A word on the Emax: it is the greatest response seen or fitted, relative to the assay's reference. One may read the EC50 as the concentration at which the effect is half-maximal. Low readings indicate a more potent agent, high ones a less potent agent.
